PubChem BioAssay (NCI)
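Protocol summary: plate cells (96-well), add compound at 5 concentrations, incubate 48 h, interpolate endpoints linearly. GI50 marks 50% less growth. TGI is the concentration that stops growth completely.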

Assays:
Experiment in all cases: NCI-60 cell line screen, 48 h
RXF-631 renal = tested on: RXF-631 renal
XF 498 CNS = tested on: XF 498 CNS
M19-MEL melanoma = tested on: M19-MEL melanoma
LXFL 529 NSCLC = tested on: LXFL 529 NSCLC
DMS 273 small cell lung = tested on: DMS 273 small cell lung
MDA-MB-435 = tested on: MDA-MB-435
DU-145 prostate = tested on: DU-145 prostate
MDA-N = tested on: MDA-N

SMILES | TGI (RXF-631 renal) | TGI (XF 498 CNS) | TGI (M19-MEL melanoma) | TGI (LXFL 529 NSCLC) | TGI (DMS 273 small cell lung) | also measured
Nc1nc(Cl)cc(NCCCCCCCCCCNc2cc(Cl)nc(N)n2)n1 | 40.3 µM | 8.86 µM | > 100 µM | > 100 µM | > 100 µM | –
Cc1ccc(C)c(NC(=O)CCc2n[nH]c(=S)o2)c1 | > 100 µM | > 100 µM | > 100 µM | > 100 µM | > 100 µM | –
C[Si](C)(C)[C@@]1([Se]c2ccccc2)CC[C@@H]1C(=O)c1ccccc1 | > 100 µM | – | > 100 µM | > 100 µM | > 100 µM | –
COc1ccccc1OCC(COC(=O)Nc1ccc(C)cc1)OC(=O)Nc1ccc(C)cc1 (stereo not given) | 47.2 µM | – | – | > 100 µM | 32 µM | –
C/C(=N\NC(=S)Nc1ccc([N+](=O)[O-])cc1S(=O)(=O)O)c1ccccn1 | > 100 µM | 78.7 µM | > 100 µM | > 100 µM | > 100 µM | –
O=C(O)CNS(=O)(=O)c1ccc(NC(=O)c2cccc([N+](=O)[O-])c2)cc1 | > 100 µM | > 100 µM | > 100 µM | > 100 µM | > 100 µM | –
N#CC(/C(=N\NC(N)=S)C(=O)NC1C2CC3CC(C2)CC1C3)c1ccc(Cl)cc1 (stereo not given) | > 100 µM | > 100 µM | > 100 µM | > 100 µM | > 100 µM | –
COc1ccc(-c2nc(N)nc(-c3cc(C)ccc3O)c2Cl)cc1 | > 100 µM | 64.3 µM | > 100 µM | > 100 µM | > 100 µM | –
O=C1CCCC2COc3ccc(O)c1c32 (stereo not given) | > 100 µM | – | > 100 µM | – | > 100 µM | –
OCC1CC2CC1C1(C2)OCCO1 (stereo not given) | > 100 µM | > 100 µM | > 100 µM | > 100 µM | > 100 µM | –
COc1ccc2c(c1)[n+]([O-])c(-c1ccc(Cl)c(Cl)c1)c(N)[n+]2[O-] | 82.3 µM | – | > 100 µM | > 100 µM | 66.7 µM | –
Cc1cc(Br)cc(C)c1NC(=O)C(=O)C(C(=O)c1ccc(Cl)c(Cl)c1)C1OC(=O)c2ccccc21 (stereo not given) | > 100 µM | – | > 100 µM | > 100 µM | > 100 µM | –
O=C1C=Cc2noc3cccc1c23 | 27.9 µM | – | 11.2 µM | 4.9 µM | 20.4 µM | –
O=C(O)C(O)C(O)C1[O][Sb][O]C1CO (stereo not given) | – | > 100 µM | 31 µM | > 100 µM | > 100 µM | GI50 (MDA-MB-435): > 100 µM; TGI (MDA-MB-435): > 100 µM; GI50 (DU-145 prostate): > 100 µM; TGI (DU-145 prostate): > 100 µM; GI50 (MDA-N): > 100 µM; TGI (MDA-N): > 100 µM; GI50 (XF 498 CNS): > 100 µM; GI50 (M19-MEL melanoma): 9.07 µM; GI50 (LXFL 529 NSCLC): > 89.2 µM; GI50 (DMS 273 small cell lung): > 100 µM
Cc1ccc(NC(=O)CCC(=O)C(C#N)c2ccc(Cl)cc2)cc1C (stereo not given) | – | > 100 µM | > 100 µM | > 100 µM | > 100 µM | –
